Test results reported in BindingDB's records for doi:10.1016/0960-894X(95)00162-M (1995).

Target: Beta-lactamase TEM (Escherichia coli) (UniProt P62593)
Experiment: Kd for TEM-1 beta-lactamase

Beta-lactamase TEM (Escherichia coli), sequence (P62593 whole entry, looked up): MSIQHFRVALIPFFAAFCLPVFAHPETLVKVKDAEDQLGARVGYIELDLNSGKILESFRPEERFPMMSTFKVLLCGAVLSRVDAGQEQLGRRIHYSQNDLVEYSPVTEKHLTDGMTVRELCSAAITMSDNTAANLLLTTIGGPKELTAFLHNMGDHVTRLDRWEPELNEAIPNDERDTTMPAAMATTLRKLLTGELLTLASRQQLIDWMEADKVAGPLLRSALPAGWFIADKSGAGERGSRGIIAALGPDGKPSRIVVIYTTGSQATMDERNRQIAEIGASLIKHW

Kd: 800 nM
Structure (SMILES): C/C=C1\O[C@@H]2CC(=O)N2[C@H]1C(=O)O [Sodium; (2R,5R)-3-eth-(Z)-ylidene-7-oxo-4-oxa-1-aza-bicyclo[3.2.0]heptane-2-carboxylate]
